Measured values as given in patent publication US12564595B2, “Prophylactic and therapeutic pharmaceutical agent for HIV infectious diseases characterized by comprising combination of integrase inhibitor and anti-HIV agent” (Shionogi & Co., Ltd., priority 2019, dated 2026).
Where two headings read alike, the source gives them in different places.

Tests used:
[1] = system: HIV mutant strain 2 (E92Q/E138T/G140S/Q148H); test: Test Example 2: resistance evaluation test (HeLa-CD4 reporter), mutant strain 2; type: cell-based; conditions: FC=EC50 of mutant strain/EC50 of wild strain; HeLa-CD4 cells
Description: (§1) A serial dilution series of test samples in 96-well microplates was prepared (50 […]).
(§2) 2.5×10^4/mL of HeLa-CD4 cell suspension was dispensed into each of the microplates containing test sample, in the amount of 100 μL/well, and HIV virus liquid (wild strain and mutant strain) was then dispensed in an amount of 50 μL/well. Mixing was performed using a plate mixer and culturing was performed for three days in a CO2 incubator. After removing the cultured supernatant of each well by suction, 100 μL of the cell solution buffer in the reporter measurement kit was dispensed thereto, and freezing was conducted in a refrigerator (−80° C.). The plates frozen in the refrigerator were defrosted at room temperature, then mixed using a plate mixer and centrifuged for 5 min at 1,200 rpm. The supernatant of each well was divided to 96-well microplates (BLACK) in the amount of 20 μL in each case. The chemiluminescence reagent in the reporter assay kit was dispensed in the amount of 100 μL in each case, and, after reacting for about 1 h at room temperature, the amount of luminescence was measured using a MicroBeta TRILUX.
(§3) The degree of resistance (fold change (FC)) of each mutant strain was also calculated using the following formula. FC=EC50 of mutant strain/EC50 of wild strain (Results)
(§4) The results of the example compounds relating to formula (I) of (A) are shown below. The […] in respect of mutant strain 1 (E138K/G140S/Q148H/N155H) and the FC in respect of mutant strain 2 (E92Q/E138T/G140S/Q148H) are shown in the Table.

[2] = system: HIV; test: microbe, parasite or virus in culture; type: cell-based; conditions: Human immunodeficiency virus 1, MT4, 96 h, read-out: EC50 (50% HIV inhibition concentration), MT-4 cells, HIV, cultured four days, MTT
Description: A serial dilution series of test samples was prepared in 96-well microplates (50 μL/well).
100 μL/well in each case were dispensed onto plates having test samples of 2.5×10^5/mL MT-4 cell suspension, and HIV virus solution was then dispensed thereto in the amount of 50 μL/well. Mixing was performed using a plate mixer and culturing was performed for four days in a CO2 incubator. MTT (3-(4,5-dimethylthiazol-2-yl)-2,5-diphenyltetrazolium bromide) liquid was dispensed into each well in the amount of 30 μL in each case. The reaction was conducted for 1 h in a CO2 incubator. 150 μL of supernatant were removed from each well, taking care not to aspirate any cells. 150 μL of cell solution were added, and thorough mixing was performed with a plate mixer until all the cells had been dissolved. The optical absorbance of the mixed plates was measured at two wavelengths: 560 nm/690 nm, with a microplate reader.

[3] = system: HIV mutant strain 1 (E138K/G140S/Q148H/N155H); test: Test Example 2: resistance evaluation test (HeLa-CD4 reporter), mutant strain 1; type: cell-based; conditions: FC=EC50 of mutant strain/EC50 of wild strain; HeLa-CD4 cells
Description: as §1, §2, §3, §4

[4] = Test Example 8: metabolic stability test; type: in vitro ADME, human; conditions: pooled human liver microsomes, 30 min at 37° C., NADPH, compound concentration 0.5 μmol/L
Description: The extent of metabolization of the compound according to the present invention in the liver was evaluated by reacting commercially available pooled human liver microsomes with the compound according to the present invention for a fixed time and calculating the remaining percentage by comparing the reaction sample with an unreacted sample.
The reaction (oxidative reaction) was conducted for 0 min or 30 min at 37° C. in the presence of 1 mmol/L of NADPH, in a 0.2 mL buffer solution containing 0.5 mg of human liver microsome protein/mL (50 mmol/L Tris-HCl pH 7.4, 150 mmol/L potassium chloride, 10 mmol/L magnesium chloride). After the reaction, 50 μL of reaction liquid were added to 100 μL of methanol/acetonitrile=1/1 (v/v) solution, mixed, and centrifuged for 15 minutes at 3000 rpm. The compound according to the present invention in the centrifuged supernatant was quantified using LC/MS/MS or solid phase extraction (SPE)/MS; the residual amount of the compound according to the present invention after the reaction was calculated, taking the amount of the compound at the 0 min reaction point as 100%.

[5] = compounds of formula (I) of (A)
[6] = compounds of formula (I′) of (B)

EC50 [2, 6]	Compound	FC in respect of mutant strain 2 (E92Q/E138T/G140S/Q148H) [1]	EC50 [2, 5]	FC in respect of mutant strain 1 (E138K/G140S/Q148H/N155H) [3]	Remaining percentage [4]
–	CCN1C(=O)c2c(O)c(=O)c(C(=O)NCc3ccc(F)cc3F)cn2N2CC[C@@H](C)C[C@@H]12 [II-068]	4.2	0.25 nM	7	82.9%
–	CCN1C(=O)c2c(O)c(=O)c(C(=O)NCc3c(F)cc(F)cc3F)cn2N2[C@H](COC)CC[C@@H]12 [II-093]	25	0.22 nM	49	96.1%
–	CN1C(=O)c2c(O)c(=O)c(-c3nnc(Cc4ccc(F)cc4F)s3)cn2N2CCOC[C@@H]12 [II-102]	22	1.3 nM	25	106%
–	CCN1C(=O)c2c(O)c(=O)c(-c3nnc(Cc4c(F)cc(F)cc4F)s3)cn2N2C[C@@H](C)C[C@@H]12 [II-112]	7	1.9 nM	4.7	90.5%
–	C[C@@H]1CC[C@H]2N(C)C(=O)c3c(O)c(=O)c(-c4nnc(Cc5ccc(F)cc5F)s4)cn3N12 [II-113]	6.5	0.66 nM	7.2	85.3%
–	CN1C(=O)c2c(O)c(=O)c(-c3nnc(Cc4cccc(Cl)c4F)s3)cn2N2CCOC[C@@H]12 [II-122]	25	0.24 nM	30	102%
–	C[C@@H]1CCC[C@H]2N(C)C(=O)c3c(O)c(=O)c(-c4nnc(Cc5ccc(F)cc5F)s4)cn3N12 [II-124]	11	3.5 nM	6.8	103%
–	CCN1C(=O)c2c(O)c(=O)c(-c3nnc(Cc4c(F)cc(F)cc4F)s3)cn2N2[C@H](C)CCC[C@@H]12 [II-125]	26	1.4 nM	11	88.5%
–	CCN1C(=O)c2c(O)c(=O)c(-c3nnc(Cc4c(F)cc(F)cc4F)s3)cn2N2C[C@@H]3CC[C@@H](O3)[C@@H]12 [II-126]	20	0.6 nM	17	97.2%
–	CCN1C(=O)c2c(O)c(=O)c(-c3nnc(Cc4ccc(F)cc4F)s3)cn2N2C[C@@H]3CC[C@@H](O3)[C@@H]12 [II-127]	19	0.74 nM	7.9	100%
–	CCN1C(=O)c2c(O)c(=O)c(-c3nnc(Cc4ccc(F)cc4)s3)cn2N2C[C@@H]3CC[C@@H](O3)[C@@H]12 [II-128]	29	0.66 nM	20	103%
–	CCN1C(=O)c2c(O)c(=O)c(-c3nnc(Cc4ccc(F)cc4F)s3)cn2N2C[C@@H]3CC[C@@H](C3)[C@@H]12 [II-130]	3.9	0.66 nM	2.5	92.9%
1.4 nM	COCC[C@H]1Cn2c(C)cc3c(-c4ccc(Cl)cc4)c([C@H](OC(C)(C)C)C(=O)O)c(C)c(c32)N1S(C)(=O)=O [I′-043]	–	–	–	–
1.6 nM	COc1cnc(N2CCn3c(C)cc4c(-c5ccc(C)cc5)c([C@H](OC(C)(C)C)C(=O)O)c(C)c2c43)nc1 [I′-189]	–	–	–	–
5.9 nM	Cc1ccc(-c2c([C@H](OC(C)(C)C)C(=O)O)c(C)c3c4c2cc(C)n4CCN3c2ncc(OCCN(C)C)cn2)cc1 [I′-220]	–	–	–	–
2.5 nM	Cc1ccc(-c2c([C@H](OC(C)(C)C)C(=O)O)c(C)c3c4c2cc(C)n4CCN3c2nc3c(s2)CCN(C)C3)cc1 [I′-292]	–	–	–	–
4.1 nM	Cc1ccc(-c2c([C@H](OC(C)(C)C)C(=O)O)c(C)c3c4c2cc(C)n4CCN3c2ncc(CN(C)C)cn2)cc1 [I′-304]	–	–	–	–
